Here are results for 4 molecules from patent US8105979B2, “Active ingredient combinations with insecticidal and acaricidal properties” (Bayer CropScience AG, priority 2006, dated 2012).

The subject of one assay is Myzus persicae. The experiment in a line: Myzus persicae test (cabbage leaf dip). Format: in vivo. The note with it: single active compound.
The test system of assay [1] is Phaedon cochleariae larvae. Description: Phaedon cochleariae larvae test (cabbage leaf dip). Conditions: single active compound.

With `CN(Cc1ccc(Cl)nc1)C1=CC(=O)OC1` [compound (Ia)], the “Kill in % after 1d” value with Myzus persicae (0.8 ppm) is recorded as 70%. Moreover, in assay [1] (20 ppm), the “Kill in % after 6d” value amounted to 5%. Moreover, the “Kill in % after 4d” value in assay [1] (100 ppm) worked out at 68%.

On to `O=C1C=C(N(Cc2ccc(Cl)nc2)C2CC2)CO1` [compound (Ib)], for which the results for the “Kill in % after 1d” value with Myzus persicae (0.8 ppm) and in the assay on Myzus persicae (4 ppm) were 10% and 75%, respectively.

In the case of `Cc1cc(C)c(C2=C(OC(=O)CC(C)(C)C)C3(CCCC3)OC2=O)c(C)c1` [spiromesifen, reference compound], the “Kill in % after 1d” value with Myzus persicae (100 ppm) was found to be 0%. Besides, the “Kill in % after 6d” value in assay [1] (100 ppm) was found to be 10%.

For spirotetramate [reference compound], the “Kill in % after 1d” value in the assay with Myzus persicae (0.8 ppm) stood at 5%. Besides, the “Kill in % after 4d” value in assay [1] (20 ppm) amounted to 5%.
